The results in this text go back to article PMC6677754, “In silico design and optimization of selective membranolytic anticancer peptides” (Scientific Reports, 2019).

Where two headings read alike, the source gives them in different places. Peptide text beside a SMILES is read from it.

Common to all, as to format: cell-based, human
In assay [1] the test system is A549 lung adenocarcinoma cell line. In words: Cell viability assay (MTT). Particulars: MTT. In outline: (§1)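 Viability by MTT: 10^4 cells/well exposed 24 h to 2-fold peptide dilutions from 100 μM in DMEM, then 1 h with 0.5 mg mL−1 MTT; absorbance at 540 nm relative to peptide-free medium as 100% survival. EC50 from a 3-parameter log-logistic fit.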
For assay [2], the system named is MCF7 breast adenocarcinoma cell line. In words: Cell viability assay (MTT). The method, boiled down: as §1
Assay [3] relates to Breast cancer cell lines. The assay is described as follows: NCI-60 screening, average of cancer type. The note with it: for log GI50: Table 5, Breast, averaged over cell lines, 48 h, sulforhodamine B, 10^-4 to 10^-8 M; for Log GI (M): Table S3, Breast, averaged activity for the cancer type, log GI50. How it is done:
(§2) NCI-60 screening procedure
(§3) The NCI-60 screening procedure was performed by the Developmental Therapeutics Program of the National Cancer Institute. The procedure was performed as previously described24 in 96-well microtiter plates. Each peptide was tested in a 5-concentration assay, starting at 10^-4 M and diluting 10-fold to the lowest 10^-8 M concentration. The peptides were incubated for 48 h and the cell concentration was assayed by using the sulforhodamine B assay25 and optical density measurements. The growth inhibition (GI50) value24, measures the growth inhibitory power of the drug agent. The GI50 value is the concentration of the test drug for which the condition in Eq. S1 is met, where T is the optical density of the test well after a 48-h exposure to the peptide, T0 the optical density before applying the peptide drug and C the control optical density of a well where no peptide was applied.

In assay [4] the test system is CNS cancer cell lines. In words: NCI-60 screening, average of cancer type. The note with it: for log GI50: Table 5, CNS, averaged over cell lines, 48 h, sulforhodamine B, 10^-4 to 10^-8 M; for Log GI (M): Table S3, CNS, averaged activity for the cancer type, log GI50. Here is the method:
as §2, §3

Assay [5] concerns Colon cancer cell lines. The assay is described as follows: NCI-60 screening, average of cancer type. Particulars: for log GI50: Table 5, Colon, averaged over cell lines, 48 h, sulforhodamine B, 10^-4 to 10^-8 M; for Log GI (M): Table S3, Colon, averaged activity for the cancer type, log GI50. Here is the method: as §2, §3
Assay [6] concerns Leukemia cell lines. The assay is described as follows: NCI-60 screening, average of cancer type. Particulars: for log GI50: Table 5, Leukemia, averaged over cell lines, 48 h, sulforhodamine B, 10^-4 to 10^-8 M; for Log GI (M): Table S3, Leukemia, averaged activity for the cancer type, log GI50. How it is done: as §2, §3
The test system of assay [7] is Lung cancer cell lines. In words: NCI-60 screening, average of cancer type. Particulars: for log GI50: Table 5, Lung, averaged over cell lines, 48 h, sulforhodamine B, 10^-4 to 10^-8 M; for Log GI (M): Table S3, Lung, averaged activity for the cancer type, log GI50. Here is the method:
as §2, §3

Assay [8] has as its system Melanoma cell lines. In words: NCI-60 screening, average of cancer type. The note with it: for log GI50: Table 5, Melanoma, averaged over cell lines, 48 h, sulforhodamine B, 10^-4 to 10^-8 M; for Log GI (M): Table S3, Melanoma, averaged activity for the cancer type, log GI50. Here is the method:
as §2, §3

The test system of assay [9] is Ovarian cancer cell lines. The assay is described as follows: NCI-60 screening, average of cancer type. Particulars: for log GI50: Table 5, Ovarian, averaged over cell lines, 48 h, sulforhodamine B, 10^-4 to 10^-8 M; for Log GI (M): Table S3, Ovarian, averaged activity for the cancer type, log GI50. How it is done: as §2, §3
For assay [10], the system named is Prostate cancer cell lines. The assay is described as follows: NCI-60 screening, average of cancer type. The note with it: for log GI50: Table 5, Prostate, averaged over cell lines, 48 h, sulforhodamine B, 10^-4 to 10^-8 M; for Log GI (M): Table S3, Prostate, averaged activity for the cancer type, log GI50. Here is the method: as §2, §3
Assay [11] deals with Renal cancer cell lines. In words: NCI-60 screening, average of cancer type. Particulars: for log GI50: Table 5, Renal, averaged over cell lines, 48 h, sulforhodamine B, 10^-4 to 10^-8 M; for Log GI (M): Table S3, Renal, averaged activity for the cancer type, log GI50. Here is the method: as §2, §3

Take `CC[C@H](C)[C@H](NC(=O)[C@H](CCCNC(=N)N)NC(=O)[C@H](Cc1c[nH]c2ccccc12)NC(=O)[C@@H](NC(=O)[C@H](CCCCN)NC(=O)[C@H](CCCCN)NC(=O)[C@@H](NC(=O)[C@@H](NC(=O)[C@@H](NC(=O)[C@H](CCCCN)NC(=O)[C@H](Cc1ccccc1)NC(=O)[C@H](CCCCN)NC(=O)[C@H](CCCCN)NC(=O)[C@H](Cc1ccccc1)NC(=O)[C@@H](NC(=O)[C@@H](N)CCCCN)[C@@H](C)CC)[C@@H](C)O)[C@@H](C)CC)[C@@H](C)CC)C(C)C)C(=O)N[C@@H](Cc1ccccc1)C(=O)NCC(=O)N[C@@H](CCCNC(=N)N)C(=O)N[C@@H](Cc1ccccc1)C(N)=O` [AmphiArc2] (H-KIFKKFKTIIKKVWRIFGRF-NH2): the EC50 in assay [1] (10^4 cells per well, 24 h with peptide, 2-fold dilution series from 100 µM in DMEM, absorbance 540 nm, mean ± std, N = 3, read-out: A549 EC50/µM) was found to be 9.3 ± 1.5 µM; in assay [2] (10^4 cells per well, 24 h with peptide, 2-fold dilution series from 100 µM in DMEM, absorbance 540 nm, mean ± std, N = 3) it was 5.7 ± 0.7 µM. Also, the “log GI50” value is −5.6 M in assay [3]; −5.6 M in [4]; −5.6 M in assay [5]; −5.5 M in assay [6]; −5.6 M in assay [7]; −5.6 M in assay [8]. For the same compound, the “log GI50” value is on record as −5.6 M in [9], −5.7 M in [10] and −5.7 M in [11]. Moreover, the “Log GI (M)” value is listed as -5.65 M in [3]; -5.63 M in assay [4]; -5.57 M in assay [5]; -5.50 M in [6]; -5.65 M in assay [7]; -5.64 M in assay [8]. Moreover, the figures for the “Log GI (M)” value in assay [9], in assay [10] and in assay [11] were -5.60 M, -5.72 M and -5.67 M, respectively.

Take `CC[C@H](C)[C@H](NC(=O)[C@H](CCCCN)NC(=O)[C@H](CCCCN)NC(=O)[C@@H](NC(=O)[C@@H](NC(=O)[C@@H](N)Cc1c[nH]cn1)[C@@H](C)CC)[C@@H](C)CC)C(=O)N[C@@H](CCCNC(=N)N)C(=O)N[C@H](C(=O)N[C@@H](Cc1c[nH]c2ccccc12)C(=O)N[C@@H](Cc1ccc(O)cc1)C(=O)N[C@@H](CCCNC(=N)N)C(=O)N[C@@H](CCCCN)C(=O)N[C@@H](C)C(=O)N[C@@H](Cc1c[nH]c2ccccc12)C(=O)N[C@@H](Cc1c[nH]cn1)C(=O)N[C@H](C(=O)N[C@@H](CC(C)C)C(=O)NCC(=O)N[C@@H](CCCCN)C(=O)N[C@H](C(N)=O)C(C)C)C(C)C)[C@@H](C)O` [Off2] (H-HIIKKIRTWYRKAWHVLGKV-NH2): the EC50 in assay [1] (Table S2, 24 h, mean ± sd, N = 2 independent measurements with six technical replicates each (Figs S6-S8), read-out: A549 EC50 /µM) is 17 ± 0.6 µM; in assay [2] (Table S2, 24 h, mean ± sd, N = 2 independent measurements with six technical replicates each (Figs S6-S8)) it was 10 ± 2 µM. For the same compound, the “log GI50” value in assay [3] is on record as −5.4 M; in assay [4] it was −5.2 M; in [5], −5.2 M; in assay [6], −5.2 M; in [7], −5.4 M; in assay [8], −5.3 M. For the same compound, the figures for the “log GI50” value in [9], in assay [10] and in assay [11] were −5.2 M, −5.5 M and −5.3 M, respectively. In addition, the “Log GI (M)” value in [3] is on record as -5.36 M; in assay [4], -5.21 M; in assay [5] it was -5.24 M; in assay [6], -5.17 M; in assay [7], -5.37 M; in assay [8], -5.33 M. The “Log GI (M)” value is reported as -5.17 M in [9], -5.46 M in assay [10] and -5.28 M in assay [11].
